Several values for one entry are separate records, joined by “and”; a condition that tells them apart may be missing. Identical values can stand only once.
Key:
human dermal fibroblasts [1] = assay: Exposure to As(III) (sodium arsenite), fibroblast survival; type: cell-based; conditions: 9 mM sodium arsenite, 24 hours, no EDA
Procedure: Deschampsia antarctica extract (EDA): In experiments with fibroblasts, lyophilized EDA batch 051214 was used. The product was dissolved in a complete DMEM medium at a concentration of 5 mg/ml, stirred in a magnetic stirrer for 30 minutes and filtered through a 0.2 μm sterile cellulose acetate filter (Minisart, Sartorius).
As(III): sodium arsenite (NaAsO2) at a final concentration of 9 mM was dissolved in phenol red-free DMEM medium and filtered through a 0.2 μm sterile cellulose acetate filter (Minisart, Sartorius).
The cells used were human dermal fibroblasts isolated from the outer area of the retroauricular flap obtained from different healthy voluntary donors and preserved in liquid N2. The experiments used cells grown in culture flasks containing DMEM supplemented with 2 mM glutamine, […], 10% fetal bovine serum, in a Heraeus oven with an atmosphere of 7% CO2 and 93% humidified air at 37° C., until reaching about 90% of confluence, after which a new pass was performed by means of trypsinization. […]
The plates were washed twice with Hank's. […] It was carefully stirred in a plate stirrer and the absorbance at 550 nm was read in a BMG Fluostar Optima spectrophotometer.

human dermal fibroblasts [2] = assay: Exposure to Cd(II), fibroblast survival; type: cell-based

Structure (SMILES)	Survival % (vs CC) (human dermal fibroblasts [1])	Survival x (human dermal fibroblasts [1])	Survival % (human dermal fibroblasts [2]; 3 μM Cd, 24 hours, no EDA) [%]	Survival x (human dermal fibroblasts [2]; 3 μM Cd, 24 hours, no EDA) [u abs]	mortality (human dermal fibroblasts [2]; Cd(II) at 3 μM (FIG. 7))
O=[As]O [sodium arsenite]	42.0% and 54.6% and 46.4%	0.209 u abs and 0.206 u abs and 0.334 u abs			
[Cl][Cd][Cl] [Cd, cadmium chloride]			54.9	0.188	about 50%

Source: patent publication US20190328819A1 (priority 2016, published 2019)
